“And” between values parts separate entries of the source, which are not always exact repeats. Equal values may be shown once.
Experiment: Kidney concentrations and tissue pharmacokinetics after intravenous C3G
Format: in vivo, Wistar rats
Text: Twenty-two male Wistar rats (Rattus Norvegicus, Harlan Italy S.r.l.), of same age (15 weeks), 293–390 g of body weight, were used. The rats were randomly divided into 5 groups, according to the time that elapsed after intravenous administration of the test compound, and one control group. Each time point was represented by four biological replicates. All animals were allowed to acclimate to the animal facility of the University of Trieste for at least 2 week before studies were initiated. The experimental design was vetted and approved by the bioethical committee of the University of Trieste (internal code 140PAS14), according to the provisions of the European Community Council Directive 2010/63/EU[39]. The methods were carried out in accordance with the approved guidelines. The animals (n = 22) were maintained in cages in a room at 23 ± 2 °C, 50–60% humidity with a 12-hour light-dark cycle. The night before the experiment, food was withdrawn from the cages but water was given ad libitum. On the day of the experiment, the rats were anesthetized with intra-peritoneal administration of tiletamine/zolazepam (1:1, 25 mg/kg body weight) and xylazine (10 mg/kg body weight). During anaesthesia (10 min in all cases), the heart and ventilation rate were monitored. The rats were placed on their backs, with the ventral side up and with the legs spread separately on a thermo-isolated support. The penis was extruded by sliding the prepuce downwards. The dorsal penis vein was then seen along both sides of the penis and exactly 10 min after anaesthesia 0.2 mL PBS without (control group) or with (treated group) 668 nmol cyanidin 3-glucoside (C3G) in PBS was injected using a 24-G hypodermic needle. Then the injection site was pressed with a swab for a few seconds, and the glans was encouraged to retract to prevent further bleeding. One min before sacrificing the rats, sodium heparin (0.1 ml, 500 IU) was injected again into the dorsal penis vein, exposed in the same way. […] Blood draining and excision of the organs were carried out according to the literature. In detail, blood was collected from the neck of rats hold upside down, immediately after their decapitation, which happened at the time points sharp. Exsanguination took 5 seconds; laparotomy and excision of the liver and the kidneys took 5 more seconds. The post-decapitation procedures were standardised. Urine was collected through the urinary bladder with a syringe before decapitation. Kidneys, liver and brain were washed with mQ water, immediately frozen in liquid nitrogen and stored at −80 °C.
Immediately after sampling, 5 mL of blood were transferred into ice-cold (−20 °C), deoxygenated aqueous 95% methanol in a ratio 1:9 (v/v). The urine was weighted and transferred into ice-cold, deoxygenated aqueous 95% methanol at a ratio of 1:9 (w/v). Frozen kidneys, liver and brain were grounded under cryogenic conditions (−196 °C) to 5 μm particles in a CryoMill (Retsch, Germany), using a single 25 mm i. d. steel ball (30 seconds, 25/sec frequency). The pulverized tissue was rapidly transferred (without thawing) into ice-cold, deoxygenated aqueous 95% methanol at a ratio of 1:9 (w/v). Cinnamic acid-d5, as internal standard, was dissolved in the aqueous methanol at concentration of 0.1 mg/L for the monitoring of the extraction protocol in biofluids and tissues.
All samples were extracted with an orbital shaker for 10 min at room temperature. The methanol extracts were then centrifuged for 5 min at 3600 rpm at 4 °C, decanted under a stream of nitrogen in 50 mL dark glass vessels and stored at −80 °C. Clean-up of extracted samples in methanol was performed by solid phase extraction (SPE), as previously described. Briefly, 5 mL of extracted samples were evaporated on a rotary evaporator and reconstituted in 10 mL of acidified water. Anthocyanins were extracted by solid-phase adsorption onto a hydrophobic matrix (Sep-Pak C18, 0.35 g, Waters, Milford, MA). […]

OC[C@H]1O[C@@H](Oc2cc3c(O)cc(O)cc3[o+]c2-c2ccc(O)c(O)c2)[C@H](O)[C@@H](O)[C@@H]1O [C3G, Cyanidin-3-O-β-glucoside]
Amounts found in kidneys (range over sampling times) (0.25–20 min after i.v. 668 nmol C3G): 0.44 to 1.69 nmol/g
Mean concentration in kidneys (0.25 min after i.v. 668 nmol C3G, mean ± SEM n=4): 1.69 ± 0.47 nmol/g
Mean concentration in kidneys (2 min after i.v. 668 nmol C3G): 1.40 ± 0.16 nmol/g
Mean concentration in kidneys (5 min after i.v. 668 nmol C3G): 0.58 ± 0.08 nmol/g
Mean concentration in kidneys (15 min after i.v. 668 nmol C3G): 0.57 ± 0.17 nmol/g
Mean concentration in kidneys (20 min after i.v. 668 nmol C3G): 0.44 ± 0.04 nmol/g
MTTK (Mean Transit time in kidneys) (kidneys): 8.54 min
AUC0-t (kidneys, i.v. 668 nmol C3G): 14.3 nmol·min/g and 14.32 nmol·min/g
half-life (male, Wistar, rat, kidney, iv, 668 nmol, kidneys): 11.7 min
